In patent publication US7622481B2, “Antibacterial compounds” (priority 2003, dated 2009):
Structures can show the parent of a compound that is named as a salt.

assay: MIC of test compounds against various organisms; type: cell-based; conditions: not given
Description: The MIC (μg/ml) of test compounds against various organisms was determined including:
S. epidermidis CL7, S. aureus WCUH29, S. pneumoniae 1629, S. pyogenes CN10, H. influenzae ATCC 49247, E. faecalis 2, M. catarrhalis Ravasio, E. coli 7623.

SMILES	MIC [µg/mL]
COc1ccc2nccc(NC(=O)[C@@H]3CC[C@@H](NCc4ccc5c(n4)NC(=O)CO5)[C@@H](F)C3)c2n1 [Example 31, (1R,3S,4R)-3-Fluoro-4-[(3-oxo-3,4-dihydro-2H-pyrido[3,2-b][1,4]oxazin-6-ylmethyl)-amino]-cyclohexanecarboxylic acid (6-methoxy-[1,5]naphthyridin-4-yl)-amide dihydrochloride]	≤ 2
COc1ccc2nccc(NC(=O)[C@@H]3CC[C@@H](NCc4nc5c(cc4F)SCC(=O)N5)[C@@H](F)C3)c2n1 [Example 32, (1R,3S,4R)-3-Fluoro-4[(7-fluoro-3-oxo-3,4-dihydro-2H-pyrido[3,2-b][1,4]thiazin-6-ylmethyl)-amino]-cyclohexanecarboxylic acid (6-methoxy-[1,5]naphthyridin-4-yl)-amide dihydrochloride]	≤ 2
N#Cc1ccc2cccc(NC(=O)[C@@H]3CC[C@@H](NCc4cc5c(cn4)OCCO5)[C@@H](O)C3)c2n1 [Example 37, (1R,3S,4R)-4-[(2,3-Dihydro-[1,4]dioxino[2,3-c]pyridin-7-ylmethyl)-amino]-3-hydroxy-cyclohexanecarboxylic acid (2-cyano-quinolin-8-yl)-amide hydrochloride]	≤ 2
CO[C@@H]1C[C@H](C(=O)Nc2cccc3ccc(C)nc23)CC[C@H]1NCc1cc2c(cn1)OCCO2 [Example 39, (1R,3R,4R)-4-[(2,3-Dihydro-[1,4]dioxino[2,3-c]pyridin-7-ylmethyl)-amino]-3-methoxy-cyclohexanecarboxylic acid (2-methyl-quinolin-8-yl)-amide dihydrochloride]	≤ 2

same assay, conditions: versus all these organisms (panel of 8 strains); read-out: MIC

MIC [µg/mL]	SMILES
≤ 8	COc1cccc2nccc(NC(=O)[C@]3(O)CC[C@@H](NCc4ccc5c(n4)NC(=O)CS5)CC3)c12 [Example 28, 1-Hydroxy-t-4-[(3-oxo-3,4-dihydro-2H-pyrido[3,2-b][1,4]thiazin-6-ylmethyl)-amino]-r-cyclohexanecarboxylic acid (5-methoxy-quinolin-4-yl)-amide dihydrochloride]
≤ 2	COc1cnc2cccc(NC(=O)[C@]3(O)CC[C@@H](NCc4ccc5c(n4)NC(=O)CS5)CC3)c2n1 [Example 34, 1-Hydroxy-t-4-[(3-oxo-3,4-dihydro-2Hpyrido[3,2-b][1,4]thiazin-6-ylmethyl)-amino]-r-cyclohexanecarboxylic acid (3-methoxy-quinoxalin-5-yl)-amide hydrochloride]
≤ 8	Cc1ccc2cccc(NC(=O)[C@]3(O)CC[C@@H](NCc4cc5c(cn4)OCCO5)CC3)c2n1 [Example 35, t-4-[(2,3-Dihydro-[1,4]dioxino[2,3-c]pyridin-7-ylmethyl)-amino]-1-hydroxy-c-cyclohexanecarboxylic acid (2-methyl-quinolin-8-yl)-amide dihydrochloride]
≤ 8	Cc1ccc2cccc(NC(=O)[C@H]3CC[C@H](NCc4cc5c(cn4)OCCO5)CC3)c2n1 [Example 36, t-4-[(2,3-Dihydro-[1,4]dioxino[2,3-c]pyridin-7-ylmethyl)-amino]-cyclohexanecarboxylic acid (2-methyl-quinolin-8-yl)-amide dihydrochloride]
≤ 2	N#Cc1ccc2cccc(NC(=O)[C@]3(O)CC[C@@H](NCc4cc5c(cn4)OCCO5)CC3)c2n1 [Example 38, t-4-[(2,3-Dihydro-[1,4]dioxino[2,3-c]pyridin-7-ylmethyl)-amino]-1-hydroxy-r-cyclohexanecarboxylic acid (2-cyano-quinolin-8-yl)-amide hydrochloride]
≤ 2	N#Cc1ccc2nccc(NC(=O)[C@]3(O)CC[C@@H](NCc4ccc5c(n4)NC(=O)CS5)CC3)c2c1 [Example 40, 1-Hydroxy-t-4-[(3-oxo-3,4-dihydro-2H-pyrido[3,2-b][1,4]thiazin-6-ylmethyl)-amino]-r-cyclohexanecarboxylic acid (6-cyano-quinolin-4-yl)-amide dihydrochloride]
≤ 8	Cc1cnc2cccc(NC(=O)[C@]3(O)CC[C@@H](NCc4cc5c(cn4)OCCO5)CC3)c2n1 [Example 42, t-4-[(2,3-Dihydro[1,4]dioxino[2,3-c]pyridin-7-ylmethyl)amino]-1-hydroxy-N-(3-methyl-5-quinoxalinyl)-r-cyclohexanecarboxamide dihydrochloride]

same assay, conditions: versus at least one of these organisms (panel of 8 strains); read-out: MIC

MIC [µg/mL]	SMILES
≤ 16	Cc1cnc2c(NC(=O)[C@]3(O)CC[C@@H](NCc4ccc5c(n4)NC(=O)CS5)CC3)cccc2n1 [Example 30, 1-Hydroxy-t-4-[(3-oxo-3,4-dihydro-2H-pyrido[3,2-b][1,4]thiazin-6-ylmethyl)-amino]-r-cyclohexanecarboxylic acid (2-methyl-quinoxalin-5-yl)-amide dihydrochloride]

same assay, conditions: versus some of these organisms (panel of 8 strains); read-out: MIC

MIC [µg/mL]	SMILES
≤ 2	O=C1COc2ccc(CN[C@H]3CC[C@](O)(C(=O)Nc4ccnc5ccncc45)CC3)nc2N1 [Example 29, 1-Hydroxy-t-4-[(3-oxo-3,4-dihydro-2H-pyrido[3,2-b][1,4]oxazin-6-ylmethyl)-amino]-r-cyclohexanecarboxylic acid [1,6]naphthyridin-4-ylamide]
≤ 2	CC1CNc2cccc(NC(=O)[C@]3(O)CC[C@@H](NCc4ccc5c(n4)NC(=O)CO5)CC3)c2N1 (some centres unmarked) [Example 33, 1-Hydroxy-t-4-[(3-oxo-3,4-dihydro-2H-pyrido[3,2-b][1,4]oxazin-6-ylmethyl)-amino]-c-cyclohexanecarboxylic acid (3-methyl-1,2,3,4-tetrahydro-quinoxalin-5-yl)-amide dihydrochloride]
